Values after ≈ are worked out from the molar mass of the structure shown.
Legend:
C. neoformans [1] = settings: cited from earlier work; for MIC50 against C. neoformans, alone / concentration in the combination of ibuprofen and ITR: ref 17 (Rocha et al.); for concentration in the combination of ibuprofen and ITR: ibuprofen combined with ITR
Source text: For example, […] et al. reported the combined activity against C. neoformans of the aminoglycoside K20 with ITR. […] In contrast, when combined, the concentration to reach the same activity decreases to 187 and 1 for K20 and ITR [16]. In another study, Rocha et al. evaluated the synergistic effect between ibuprofen and ITR against C. neoformans. […] However, the co ...

C. neoformans cells [2] = assay: Cell membrane integrity / membrane pore formation (propidium iodide uptake, fluorescence microscopy, ImageJ counting); assay type: cell-based, Cryptococcus neoformans
Protocol: The cell membrane integrity of C. neoformans was evaluated as described in [7]. After incubation for 24 h, as described above, the samples were washed three times with sterile 0.15 M NaCl and centrifuged (5000× g 5 min at 4 °C) to remove the YPD medium. Then, the cells were incubated with propidium iodide (PI) for 30 min in the dark at room temperature (22 °C ± 2). Next, they were washed and centrifuged twice, under the same conditions as previously mentioned. […] The fluorescent C. neoformans cells were counted using ImageJ software using the Cell Counter plugin, according to the methodology described by Aguiar et al. […] The cells were counted in the bright and fluorescent field of the same picture. Cells presenting fluorescence were called positive cells, and those without fluorescence were called negative cells. […] The cells were calculated using the equation: number of positive cells × 100/number of cells in the bright field. The number of negative cells was calculated following the equation: number of cells in the bright field—number of positive cells. Three different images were used to count the cells.

C. neoformans cells [3] = assay: Overproduction of reactive oxygen species (DCFH-DA, fluorescence microscopy, ImageJ counting); assay type: cell-based, Cryptococcus neoformans
Protocol: The ROS overproduction was evaluated according to the method Dias et al.. After incubation for 24 h, as described above, the samples were washed three times with sterile 0.15 M NaCl and centrifuged (5000× g 5 min at 4 °C) to remove the YPD medium. The analysis was conducted, as described, by PI assay. Next, 9 μL of 2',7' […] diacetate-DCFH-DA (Sigma, St. Louis, MI, USA)-was added and incubated in the dark for 30 min at room temperature (22 °C ± 2). Next, they were washed and centrifuged twice under the same conditions as those mentioned above. Then, the cryptococcal cells were observed under a fluorescence microscope (Olympus System BX 41, Tokyo, Japan), with an excitation wavelength of 488 nm and an emission wavelength of 525 nm. The fluorescent C. neoformans cells were counted using ImageJ software using the Cell Counter plugin, according to the methodology described by Aguiar et al.. The cells were counted in the bright and fluorescent field of the same picture. Cells presenting fluorescence were called positive cells, and those without fluorescence were called negative cells. […] The cells were calculated using the equation: number of positive cells × 100/number of cells in the bright field. The number of negative cells was calculated following the equation: number of cells in the bright field-number of positive cells. Three different images were used to count the cells.

[4] = test system: C. neoformans (ATCC 32045); assay: Combined antifungal activity (growth inhibition, absorbance 600 nm); assay type: cell-based, Cryptococcus neoformans; settings: YPD, 10^6 cells mL^−1, 24 h, 30 °C, A600, mean ± SD
Protocol: The combined antifungal activity was evaluated as described in [11]. The combinations with SAMPs and itraconazole were constituted of peptides MIC50 [7] + itraconazole (ITR) 500 (1×) µg mL^−1, peptides [5×D] + ITR [1×D], peptides [10×D] + ITR [5×D], and peptides [10×D] + ITR [10×D]. The cells were grown on YPD agar for […], and cryptococcal cells were then resuspended in YPD medium and standardized at 10^6 cells mL^−1. The assay was performed in 96-well plates and incubated for 24 h at 30 °C. Then, the absorbance was measured at 600 nm using an automated microplate reader (Epoch, Biotek, Santa Clara, CA, USA). The best combinations were used to study the mechanisms of action. […] Experiments were performed in three biological replications, and each biological replication was performed with three technical replicates. The statistical analyses were performed using GraphPad Prism (version 5.01) for Microsoft Windows. All data obtained in the assays were compared using standard deviation and the one-way analysis of variance (ANOVA), followed by the Tukey test (p < 0.05).

C. neoformans [5] = test system: C. neoformans; design: method as in earlier work; settings: previously defined; ref 7 (Aguiar et al.); cited from earlier work

SMILES | MIC50 against C. neoformans, alone (C. neoformans [1]; agent alone) | concentration in the combination of ibuprofen and ITR (C. neoformans [1]) | positive PI-fluorescent cells (C. neoformans cells [2]; ITR alone (dilution not given; ITR 1× in Figure 1 text), ImageJ count of three images) | membrane pore formation (PI red fluorescence), qualitative (C. neoformans cells [2]; single agent at 1×, fluorescence images, Figure 1) | DCFH-DA-fluorescent cells (C. neoformans cells [3]; ITR alone (dilution not stated), ImageJ count of three images) | ROS accumulation (DCFH-DA fluorescence), qualitative (C. neoformans cells [3]; ITR alone, fluorescence images, Figure 2) | concentration to reach the same activity when combined (C. neoformans [1]; K20 combined with ITR, unit not given, ref 16 (Shrestha et al.)) | concentration presenting activity against C. neoformans, alone (C. neoformans [1]; agent alone, ref 16 (Shrestha et al.)) | % of Inhibition of C. neoformans Growth ([4]; single agent at 1× (ITR 500; Mo-CBP3-PepII 25; RcAlb-PepII, RcAlb-PepIII, PepGAT, PepKAA 0.04 µg mL^−1)) | % of Inhibition of C. neoformans Growth ([4]; single agent at 5×D (ITR 100; Mo-CBP3-PepII 5; other peptides 0.008 µg mL^−1)) | % of Inhibition of C. neoformans Growth ([4]; single agent at 10×D (ITR 50; Mo-CBP3-PepII 2.5; other peptides 0.004 µg mL^−1)) | MIC50 against C. neoformans (C. neoformans [5])
CC(C)Cc1ccc(C(C)C(=O)O)cc1 (centres unmarked) [ibuprofen] | 512 µg/mL | 16 µg/mL | – | – | – | – | – | – | – | – | – | –
CCC(C)n1ncn(-c2ccc(N3CCN(c4ccc(OCC5COC(Cn6cncn6)(c6ccc(Cl)cc6Cl)O5)cc4)CC3)cc2)c1=O (centres unmarked) [ITR, itraconazole] | 500 µg/mL | 125 µg/mL | 0% | no red fluorescence | 0% | no ROS accumulation | 1 | 780 µg/mL | 45.3 ± 0.021% | 12.2 ± 0.003% | 0% | 500 µg/mL (≈ 709 µM)

Source: article PMC9952215, “Giving a Hand: Synthetic Peptides Boost the Antifungal Activity of Itraconazole against Cryptococcus neoformans” (Antibiotics, 2023)
